Measured values taken from paper PMC2710614 (Chemistry & biology, 2009).

Target: TrpRS (Escherichia coli, UniProt P00954)
Assay: ATP-PPi exchange of gamma-18O4-ATP, MALDI-TOFMS
Format: biochemical
Settings: 1 mM amino acid, 1 mM gamma-18O4-ATP, 5 mM MgCl2, 5 mM PPi, 20 mM Tris pH 7.5, 30 min at 25 °C

## N[C@@H](Cc1c[nH]c2ccccc12)C(=O)O [Trp]
  %γ-^18O4-ATP exchange: 9.7 ± 1.6%
